Assay: Storage stability of stock solution in water
Assay type: physicochemical
Procedure: Synthesis of guanidinium 1 Into a flask were added crude peptide 1v (0.120 mmol, 1 equiv), and a mixture of TFA, TiPS, and water (38:1:1, 2 mL, 0.06 M, producing a homogeneous solution). The mixture was stirred in the dark (1.5 h) and diluted with toluene (3 mL). Volatiles were removed under reduced pressure (2×toluene azeotrope). The crude mixture was dissolved in water (2 mL) and washed with EtOAc (2×2 mL). The aqueous phase was purified by semi-preparative RP-HPLC (C18 column, water+0.1% TFA with 15-35% MeCN over 30 min, product isomers elute at 14.5 and 15.4 min) to yield pure guanidinium 1 (58 mg, 0.049 mmol, 41% yield) as a mixture (approximately 1:1) of regioisomers at fluorescein and as a yellow solid. The regioisomeric ratio was measured by ^1H NMR. ^1H NMR signals were assigned by ^1H-^1H COSY.
Synthesis of guanidinium 2 Into a flask were added crude peptide 2g (0.150 mmol, 1 equiv), and a mixture of TFA, TiPS, and water (38:1:1, 2 mL, 0.07 M). The mixture was stirred (1.5 h) and diluted with toluene (3 mL). Volatiles were removed under reduced pressure (2×toluene azeotrope). The crude mixture was dissolved in water (2 mL) and washed with EtOAc (2×2 mL). […]

N=C(N)NCCC[C@H](NC(=O)CNC(=O)[C@@H](N)CCC(=O)NCCCOCCOCCOCCCNc1ccc([N+](=O)[O-])cc1[N+](=O)[O-])C(=O)CCl [compound 2]
stability of stock solution: stable for at least several months

Source: patent US12312621B2, “Reprogramming urokinase into an antibody-recruiting anticancer agent” (YALE UNIVERSITY, priority 2011, dated 2025)
